One test concerns rabbit aorta rings. Put plainly: Vasorelaxant effect in vitro (phenylephrine-contracted aorta rings). The settings on record: Oryctolagus cuniculus, phenylephrine contraction, read-out: IC50 (concentration reducing height of phenylephrine contraction by 50%). The procedure: Rabbits are stunned by a blow to the neck and exsanguinated. The aorta is removed, freed from adhering tissue and divided into rings of a width of 1.5 mm. The rings are placed individually under an initial tension in 5 ml organ baths with Krebs-Henseleit solution which is at 37° C., is gassed with carbogen and has the following composition (in each case mM): sodium chloride 119; potassium chloride: 4.8; calcium chloride dihydrate: 1; magnesium sulphate heptahydrate: 1.4; potassium dihydrogenphosphate: 1.2; sodium bicarbonate: 25; glucose: 10. The force of contraction is detected with Statham UC2 cells, amplified and digitized via A/D converters (DAS-1802 HC, Keithley Instruments, Munich) and recorded in parallel on chart recorders. To produce a contraction, phenylephrine is added to the bath cumulatively in increasing concentration. After several control cycles, the substance to be investigated is added in each further run in increasing dosage in each case, and the height of the contraction achieved is compared with the height of the contraction reached in the last preceding run. The concentration necessary to reduce the height of the control value by 50% is calculated from this (IC50 value). The standard administration volume is 5 μl and the proportion of DMSO in the bath solution corresponds to 0.1%.

For test [1], the target named is T1, recombinant guanylate cyclase reporter cell line (Rattus norvegicus, UniProt P19686+P20595).
T1 construct: expressed in transfected cells
T1 sequence (P20595 1-619): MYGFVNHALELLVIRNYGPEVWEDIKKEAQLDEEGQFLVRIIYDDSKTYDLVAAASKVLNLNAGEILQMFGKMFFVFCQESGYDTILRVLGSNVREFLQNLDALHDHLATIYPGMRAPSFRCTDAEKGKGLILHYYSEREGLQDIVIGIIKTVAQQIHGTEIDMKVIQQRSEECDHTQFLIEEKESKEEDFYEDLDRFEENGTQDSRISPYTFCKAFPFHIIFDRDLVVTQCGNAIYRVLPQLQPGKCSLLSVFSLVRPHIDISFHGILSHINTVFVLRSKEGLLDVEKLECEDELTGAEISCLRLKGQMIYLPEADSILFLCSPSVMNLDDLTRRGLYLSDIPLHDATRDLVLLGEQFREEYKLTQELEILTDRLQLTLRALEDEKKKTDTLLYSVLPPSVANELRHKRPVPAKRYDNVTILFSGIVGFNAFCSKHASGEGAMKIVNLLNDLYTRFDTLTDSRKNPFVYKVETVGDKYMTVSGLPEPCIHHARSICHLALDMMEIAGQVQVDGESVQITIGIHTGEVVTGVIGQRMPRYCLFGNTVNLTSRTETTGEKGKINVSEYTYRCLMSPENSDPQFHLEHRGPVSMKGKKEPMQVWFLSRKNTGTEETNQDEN
T1 sequence (P19686 1-690): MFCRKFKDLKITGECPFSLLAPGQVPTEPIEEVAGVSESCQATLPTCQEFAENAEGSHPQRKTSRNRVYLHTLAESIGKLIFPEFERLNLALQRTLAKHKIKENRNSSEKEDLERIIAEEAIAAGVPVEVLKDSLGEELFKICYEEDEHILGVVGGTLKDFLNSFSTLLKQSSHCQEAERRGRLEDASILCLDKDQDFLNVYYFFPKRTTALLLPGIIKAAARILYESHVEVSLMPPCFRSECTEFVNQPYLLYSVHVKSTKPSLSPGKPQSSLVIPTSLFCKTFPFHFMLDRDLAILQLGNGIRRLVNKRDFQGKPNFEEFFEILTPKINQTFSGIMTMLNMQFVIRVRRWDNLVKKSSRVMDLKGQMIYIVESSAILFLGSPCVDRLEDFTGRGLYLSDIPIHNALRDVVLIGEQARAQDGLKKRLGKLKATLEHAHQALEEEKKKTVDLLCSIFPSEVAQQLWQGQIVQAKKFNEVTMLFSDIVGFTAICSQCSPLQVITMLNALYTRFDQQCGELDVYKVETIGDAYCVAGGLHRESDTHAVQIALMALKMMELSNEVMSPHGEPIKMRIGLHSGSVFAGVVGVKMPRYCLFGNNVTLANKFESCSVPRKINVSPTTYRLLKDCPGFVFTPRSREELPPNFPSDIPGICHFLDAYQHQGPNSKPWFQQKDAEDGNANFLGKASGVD
Kind of test: Effect on a recombinant guanylate cyclase reporter cell line. In kind it is cell-based. The procedure: The cellular activity of the compounds according to the invention is determined using a recombinant guanylate cyclase reporter cell line, as described in F. Wunder et al., Anal. Biochem. 339, 104-112 (2005).

For the molecule `COC(=O)Nc1c(N)nc(-c2nn(Cc3ccccc3F)c3ncc(F)cc23)nc1N` [Example 1, Methyl {4,6-diamino-2-[5-fluoro-1-(2-fluorobenzyl)-1H-pyrazolo[3,4-b]pyridin-3-yl]pyrimidin-5-yl}carbamate], in the test on rabbit aorta rings, the IC50 was 958 nM. Besides, the “MEC (minimum effective concentration)” value in test [1] is 0.3 µM.
Taken in the same sequence, the figures for `COC(=O)N(C)c1c(N)nc(-c2nn(Cc3ccccc3F)c3ncc(F)cc23)nc1N` [Example 2] were 251 nM and 0.1 µM.
Consider `COC(=O)N(CC(F)(F)F)c1c(N)nc(-c2nn(Cc3ccccc3F)c3ncc(F)cc23)nc1N` [Example 3, Methyl {4,6-diamino-2-[5-fluoro-1-(2-fluorobenzyl)-1H-pyrazolo[3,4-b]pyridin-3-yl]pyrimidin-5-yl}(2,2,2-trifluoroethyl)carbamate], for which the IC50 in the test on rabbit aorta rings amounted to 515 nM. For the same molecule, the “MEC (minimum effective concentration)” value in test [1] is 0.03 µM.

For the origin of these results see patent US11439642B2 (Adverio Pharma GmbH, priority 2010, dated 2022).
